Patent US11866414B2, “Substituted heterocyclic compounds” (BRISTOL-MYERS SQUIBB COMPANY, priority 2021, dated 2024)

Tests used:
[1] = test system: IFNα-induced STAT phosphorylation (pSTAT5); test: IFNα-induced STAT phosphorylation in human whole blood; assay type: cell-based; settings: 1 h compound, 1000 U/mL IFNα A/D 15 min, CD3 positive population, read-out: Human Whole blood IFNa pSTAT5 IC50
Protocol: IFNα-Induced STAT Phosphorylation in Human Whole Blood
After an hour long incubation with compound, human whole blood (drawn with ACD-A as anticoagulant) was stimulated with 1000 U/mL recombinant human IFNα A/D (R&D Systems 11200-2) for 15 min. The stimulation was stopped by adding Fix/Lyse buffer (BD 558049). Cells were stained with a CD3 FITC antibody (BD 555916), washed, and permeabilized on ice using Perm III buffer (BD 558050). Cells were then stained with an Alexa-Fluor 647 pSTAT5 (pY694) antibody (BD 612599) for 60 min prior to analysis on the iQue Plus. The amount of pSTAT5 expression was quantitated by median fluorescence intensity after gating on the CD3 positive population.

[2] = in vitro; settings: human, Caco-2, pH 7.4

Structure (SMILES)	IC50 [1] [nM]	Papp A→B at 2 h, 3 μM [2] [×10⁻⁶ cm/s]	efflux ratio at 2 h, 3 μM [2]
[2H]C([2H])([2H])NC(=O)c1nnc(NC(=O)N(C)C)cc1Nc1nccc(-c2cnn(C)n2)c1OC [Example 39, 6-(3,3-dimethylureido)-4-((3-methoxy-4-(2-methyl-2H-1,2,3-triazol-4-yl)pyridin-2-yl)amino)-N-(methyl-d3)pyridazine-3-carboxamide]	420	18.8	0.4
[2H]C([2H])([2H])NC(=O)c1nnc(NC(=O)C2CC2)cc1Nc1cccc(-c2nn(C)nc2CC)c1OC [Example 20, 6-(cyclopropanecarboxamido)-4-((3-(5-ethyl-2-methyl-2H-1,2,3-triazol-4-yl)-2-methoxyphenyl)amino)-N-(methyl-d3)pyridazine-3-carboxamide]	210	17	1.1
[2H]C([2H])([2H])NC(=O)c1nnc(NC(=O)C2CC2)cc1Nc1cc(COC)cc(-c2cnn(C)n2)c1OC [Example 35, 6-(Cyclopropanecarboxamido)-4-((2-methoxy-5-(methoxymethyl)-3-(2-methyl-2H-1,2,3-triazol-4-yl)phenyl)amino)-N-(methyl-d3)pyridazine-3-carboxamide]	20	42.9	0.6
[2H]C([2H])([2H])NC(=O)c1nnc(NC(=O)OCC)cc1Nc1cccc(-c2cnn(C)n2)c1OC [Example 28, ethyl (5-((2-methoxy-3-(2-methyl-2H-1,2,3-triazol-4-yl)phenyl)amino)-6-((methyl-d3)carbamoyl)pyridazin-3-yl)carbamate]	370	28	0.5
[2H]C([2H])([2H])NC(=O)c1nnc(NC(=O)[C@H]2C[C@H]2C)cc1Nc1cccc(-c2cnn(C)n2)c1OC [Example 30, 4-((2-methoxy-3-(2-methyl-2H-1,2,3-triazol-4-yl)phenyl)amino)-N-(methyl-d3)-6-((1S,2R)-2-methylcyclopropane-1-carboxamido)-pyridazine-3-carboxamide]	60	29.9	0.7
[2H]C([2H])([2H])NC(=O)c1nnc(NC(=O)C2CC2)cc1Nc1cc(C(=O)OC)cc(-c2cnn(C)n2)c1OC [Example 32, methyl 3-((6-(cyclopropanecarboxamido)-3-((methyl-d3)carbamoyl)-pyridazin-4-yl)amino)-4-methoxy-5-(2-methyl-2H-1,2,3-triazol-4-yl)benzoate]	220	19.5	0.9
[2H]C([2H])([2H])NC(=O)c1nnc(NC(=O)C2CC2(F)F)cc1Nc1cccc(-c2cnn(C)n2)c1OC (stereo not drawn) [Example 31, 6-(2,2-difluorocyclopropane-1-carboxamido)-4-((2-methoxy-3-(2-methyl-2H-1,2,3-triazol-4-yl)phenyl)amino)-N-(methyl-d3)pyridazine-3-carboxamide]	110	31.3	0.8
[2H]C([2H])([2H])NC(=O)c1nnc(NC(=O)[C@H]2C[C@@H]2C)cc1Nc1nccc(-c2cnn(C)n2)c1OC [Example 42, 4-((3-methoxy-4-(2-methyl-2H-1,2,3-triazol-4-yl)pyridin-2-yl)amino)-N-(methyl-d3)-6-((1S,2S)-2-methylcyclopropane-1-carboxamido)pyridazine-3-carboxamide]	50	28.7	0.4
[2H]C([2H])([2H])NC(=O)c1nnc(NC(=O)CCCF)cc1Nc1nccc(-c2cnn(C)n2)c1OC [Example 45, 6-(4-fluorobutanamido)-4-{[3-methoxy-4-(2-methyl-2H-1,2,3-triazol-4-yl)pyridin-2-yl]amino}-N—(^2H3)methylpyridazine-3-carboxamide]	60	5.8	0.5
[2H]C([2H])([2H])NC(=O)c1nnc(NC(=O)C2CC2)cc1Nc1cccc(-c2nn(C)nc2C)c1OC [Example 23, 6-(cyclopropane-carboxamido)-4-((3-(2,5-dimethyl-2H-1,2,3-triazol-4-yl)-2-methoxyphenyl)amino)-N-(methyl-d3)pyridazine-3-carboxamide]	180	29.5	1.2
[2H]C([2H])([2H])NC(=O)c1nnc(NC(=O)[C@@H]2C[C@@H]2F)cc1Nc1nccc(-c2cnn(C3CC3)n2)c1OC [Example 44, 4-((4-(2-cyclopropyl-2H-1,2,3-triazol-4-yl)-3-methoxypyridin-2-yl)amino)-6-((1S,2S)-2-fluorocyclopropane-1-carboxamido)-N-(methyl-d3)pyridazine-3-carboxamide]	40	24.6	0.5
[2H]C([2H])([2H])NC(=O)c1nnc(NC(=O)C2CC2)cc1Nc1cc(CC)cc(-c2cnn(C)n2)c1OC [Example 21, 6-(cyclopropanecarboxamido)-4-((5-ethyl-2-methoxy-3-(2-methyl-2H-1,2,3-triazol-4-yl)phenyl)amino)-N-(methyl-d3)pyridazine-3-carboxamide]	230	33.6	0.5
[2H]C([2H])([2H])NC(=O)c1nnc(NC(=O)[C@H]2C[C@H]2C)cc1Nc1nccc(-c2cnn(C)n2)c1OC [Example 40, 4-((3-methoxy-4-(2-methyl-2H-1,2,3-triazol-4-yl)pyridin-2-yl)amino)-N-(methyl-d3)-6-((1S,2R)-2-methylcyclopropane-1-carboxamido)pyridazine-3-carboxamide]	40	25.9	0.8
[2H]C([2H])([2H])NC(=O)c1nnc(NC(=O)C2CC2(C)C)cc1Nc1nccc(-c2cnn(C)n2)c1OC (stereo not drawn) [Example 38, 6-(2,2-dimethylcyclopropane-1-carboxamido)-4-((3-methoxy-4-(2-methyl-2H-1,2,3-triazol-4-yl)pyridin-2-yl)amino)-N-(methyl-d3)pyridazine-3-carboxamide]	440	33	0.4
[2H]C([2H])([2H])NC(=O)c1nnc(NC(=O)[C@@H]2C[C@H]2F)cc1Nc1cccc(-c2cnn(C)n2)c1OC [Example 29, 6-((1S,2R)-2-fluorocyclopropane-1-carboxamido)-4-((2-methoxy-3-(2-methyl-2H-1,2,3-triazol-4-yl)phenyl)amino)-N-(methyl-d3)pyridazine-3-carboxamide]	50	37.9	0.5

Continued, values first:

IC50 [1] [nM]	Papp A→B at 2 h, 3 μM [2] [×10⁻⁶ cm/s]	efflux ratio at 2 h, 3 μM [2]	Structure (SMILES)
10	81.6	0.4	[2H]C([2H])([2H])NC(=O)c1nnc(NC(=O)C2CC2)cc1Nc1nccc(-c2cnn(C([2H])([2H])[2H])n2)c1OC [Example 57, 6-(cyclopropane-carboxamido)-4-((3-methoxy-4-(2-(methyl-d3)-2H-1,2,3-triazol-4-yl)pyridin-2-yl)amino)-N-(methyl-d3)pyridazine-3-carboxamide]
480	38.3	0.4	[2H]C([2H])([2H])NC(=O)c1nnc(NC(=O)N(C)C)cc1Nc1nccc(-c2cnn(C3CC3)n2)c1OC [Example 61, 4-((4-(2-cyclopropyl-2H-1,2,3-triazol-4-yl)-3-methoxypyridin-2-yl)amino)-6-(3,3-dimethylureido)-N-(methyl-d3)pyridazine-3-carboxamide]
86	28.6	0.9	[2H]C([2H])([2H])NC(=O)c1nnc(Nc2cc(C(C)(C)O)ccn2)cc1Nc1nccc(-c2cnn(C)n2)c1OC [Example 67, 6-{[4-(2-hydroxypropan-2-yl)pyridin-2-yl]amino}-4-{[3-methoxy-4-(2-methyl-2H-1,2,3-triazol-4-yl)pyridin-2-yl]amino}-N—(^2H3)methylpyridazine-3-carboxamide]
20	3.9	< 0.4	[2H]C([2H])([2H])NC(=O)c1nnc(Nc2ccccn2)cc1Nc1nccc(-c2cnn(C)n2)c1OC [Example 63, 4-((3-methoxy-4-(2-methyl-2H-1,2,3-triazol-4-yl)pyridin-2-yl)amino)-N-(methyl-d3)-6-(pyridin-2-ylamino)pyridazine-3-carboxamide]
10	38.1	0.4	[2H]C([2H])([2H])NC(=O)c1nnc(NC(=O)C2CC2)cc1Nc1nc(C)cc(-c2cnn(C)n2)c1OC [Example 46, 6-(cyclopropanecarboxamido)-4-((3-methoxy-6-methyl-4-(2-methyl-2H-1,2,3-triazol-4-yl)pyridin-2-yl)amino)-N-(methyl-d3)pyridazine-3-carboxamide]
4	11.7	1.6	[2H]C([2H])([2H])NC(=O)c1nnc(Nc2ccc(C(C)(C)O)cn2)cc1Nc1nccc(-c2cnn(C)n2)c1OC [Example 65, 6-{[5-(2-hydroxypropan-2-yl)pyridin-2-yl]amino}-4-{[3-methoxy-4-(2-methyl-2H-1,2,3-triazol-4-yl)pyridin-2-yl]amino}-N—(^2H3)methylpyridazine-3-carboxamide]
110	34	0.3	[2H]C([2H])([2H])NC(=O)c1nnc(NC(=O)[C@@H]2C[C@H]2C)cc1Nc1nc(C)cc(-c2cnn(C)n2)c1OC [Example 47, 4-((3-methoxy-6-methyl-4-(2-methyl-2H-1,2,3-triazol-4-yl)pyridin-2-yl)amino)-N-(methyl-d3)-6-((1R,2R)-2-methylcyclopropane-1-carboxamido)pyridazine-3-carboxamide]
